From US6835567B1, “PNS cell lines and methods of use therefor” (priority 1998, dated 2004)
Entries after “also recorded” stand apart in the source; their conditions may differ.

Tests used:
v-myc oncoprotein = test: Immunocytochemistry for v-myc in […]-C10; format: cell-based, human; conditions: after 6 days of tetracycline treatment (75±1.3% in proliferative condition)
[1] = tested on: immortalized rat DRG cultures; test: βIII tubulin and NF160 immunolabeling, immortalized rat DRG cultures; format: cell-based; conditions: for βIII-tubulin positive cells: 10 ng/mL in combination with NGF, rat serum and retinoic acid, rat tail collagen substrate
capsaicin receptors [2] = target: T1, capsaicin receptors (Homo sapiens, UniProt Q8NER1); test: Whole-cell patch clamp, capsaicin current in […]-C10; format: cell-based
T1 construct: endogenous in cells
T1 sequence (Q8NER1 whole entry): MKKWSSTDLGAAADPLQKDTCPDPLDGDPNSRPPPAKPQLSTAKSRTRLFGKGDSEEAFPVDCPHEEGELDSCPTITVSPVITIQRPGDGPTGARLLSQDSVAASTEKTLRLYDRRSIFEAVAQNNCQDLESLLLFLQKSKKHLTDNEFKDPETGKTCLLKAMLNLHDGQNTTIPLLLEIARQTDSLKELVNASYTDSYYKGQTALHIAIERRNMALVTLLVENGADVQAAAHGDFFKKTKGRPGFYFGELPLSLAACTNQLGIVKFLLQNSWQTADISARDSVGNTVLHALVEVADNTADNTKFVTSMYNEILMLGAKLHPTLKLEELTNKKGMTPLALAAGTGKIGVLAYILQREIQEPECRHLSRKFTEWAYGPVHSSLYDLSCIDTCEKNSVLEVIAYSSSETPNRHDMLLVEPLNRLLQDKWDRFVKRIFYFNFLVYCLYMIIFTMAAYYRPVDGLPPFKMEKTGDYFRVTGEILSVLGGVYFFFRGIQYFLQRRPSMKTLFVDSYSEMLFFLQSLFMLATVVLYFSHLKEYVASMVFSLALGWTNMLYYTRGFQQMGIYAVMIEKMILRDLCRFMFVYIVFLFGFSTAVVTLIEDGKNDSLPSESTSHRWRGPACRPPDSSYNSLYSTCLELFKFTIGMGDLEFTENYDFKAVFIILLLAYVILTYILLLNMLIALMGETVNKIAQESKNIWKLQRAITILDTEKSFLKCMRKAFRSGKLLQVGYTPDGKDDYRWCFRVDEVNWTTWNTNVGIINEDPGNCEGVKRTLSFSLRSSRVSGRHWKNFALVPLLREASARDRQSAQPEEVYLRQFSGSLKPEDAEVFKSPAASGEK

[3] = tested on: differentiated immortalized rat DRG cells; test: Whole-cell patch clamp, capsaicin current in rat DRG cells; format: cell-based; conditions: differentiated rat DRG cells (n=6)
capsaicin receptors [4] = target: T1, capsaicin receptors; test: Cobalt histology for capsaicin sensitivity, […]-C10.6; format: cell-based; conditions: 10 μM capsaicin; differentiated 7 days with T, HS, Fsk, G, C, N plus NT-3
Description: (§1) In certain aspects of the present invention, conditionally-immortalized PNS progenitor cell lines may be used in a variety of in vitro assays and screens. In one such aspect, the cell lines may be used in in vitro assays for agents that inhibit the capsaicin response. Briefly, a clonal neuronal cell line may be differentiated under conditions in which capsaicin responsiveness can be assessed with a cobalt histological method. Capsaicin can be added to the culture in the presence or absence of a candidate agent, and cobalt uptake evaluated. Agents that block cobalt staining may act as capsaicin receptor antagonists.

capsaicin receptors [5] = target: T1, capsaicin receptors; test: Cobalt histology for capsaicin sensitivity, […]-C11; format: cell-based
Description: as §1

HDRGVIII-C10.6 cells [6] = test: Whole-cell patch clamp characterization of […]-C10.6; format: cell-based, human; conditions: for I Capsaicin: 1 μM; for I Purinergic (αβmeATP): 100 μM
[7] = tested on: differentiated immortalized rat DRG cells; test: Whole-cell patch clamp, ATP current in rat DRG cells; format: cell-based; conditions: for desensitization of elicited currents: 100 μM, 5-second applications, differentiated 3-4 weeks
HDRGVIII-C10 cells = test: NF160 immunolabeling after differentiation of […]-C10; format: cell-based; conditions: 10 days with tetracycline, human serum, GDNF, CNTF, NGF plus forskolin (10 μM) or retinoic acid (0.5 μM)
Description: Neuronal differentiation. […] After differentiation, phase-bright cells extending long fasciculating processes were present.

[8] = tested on: differentiated HDRGVIII-C10 cells; test: Whole-cell patch clamp, ATP current in […]-C10; format: cell-based, human; conditions: 10 μM; differentiated 1-2 weeks
[9] = tested on: conditionally-immortalized rat neural crest stem cells; test: βIII tubulin immunolabeling, immortalized rat neural crest stem cells; format: cell-based; conditions: with tetracycline, 5 days; LIF 100 ng/ml; EFN = EGF 100 ng/ml, FGF-2 4 ng/ml, NGF 2.0 ng/ml
HDRGVIII-C11 cells = test: βIII-tubulin-positive neurons after differentiation of […]-C11; format: cell-based, human
HDRGVIII-C10.6 cells [10] = test: Peripherin immunolabeling after differentiation of […]-C10.6; format: cell-based, human; conditions: T, HS, Fsk, G, C, N, plus NT-3 (25 ng/ml), 5 days (31±9% without NT-3)

`CN(C)[C@@H]1C(O)=C(C(N)=O)C(=O)[C@@]2(O)C(O)=C3C(=O)c4c(O)cccc4[C@@](C)(O)[C@H]3C[C@@H]12` [tetracycline] was tested, and the “percentage of v-myc positive cells” value (v-myc oncoprotein) was 1.1±0.8% and the “βIII tubulin positive neurons” value ([1]; tetracycline alone) was ~2.5%.

`COc1cc(CNC(=O)CCCC/C=C/C(C)C)ccc1O` [capsaicin] was tested, and the response to capsaicin (capsaicin receptors [2]; 1 μM, differentiated cells with neuronal morphology) was “exhibited responses”, the response to capsaicin (capsaicin receptors [2]; prior to differentiation) was “no immortalized human PNS HDRGVIII-C10 cells exhibited responses” and the response to capsaicin [3] was “did not exhibit responses”. The “cells with neuronal morphology exhibiting cobalt uptake” value (capsaicin receptors [4]) was 30.8±2.9%, the “cells with neuronal morphology sensitive to capsaicin (cobalt precipitate)” value (capsaicin receptors [5]; 10 μM or 100 μM, differentiated with T, HS, Fsk, G, C, N plus NT-3) was “Approximately 30%” and the “I Capsaicin” value (HDRGVIII-C10.6 cells [6]; Proliferative, held at -80 mV) was 0 pA. The “I Capsaicin” value (HDRGVIII-C10.6 cells [6]; THSFskGCN, 8 days) was 114 ± 14 pA and the “I Capsaicin” value (HDRGVIII-C10.6 cells [6]; THSFskGCN, 11 days) was 217 ± 36 pA.

`Nc1ncnc2c1ncn2[C@@H]1O[C@H](COP(=O)(O)OP(=O)(O)OP(=O)(O)O)[C@@H](O)[C@H]1O` [ATP] was tested, and the “desensitization of elicited currents” value [7] was ~15%, the “cells with ATP-activated current” value ([7]; after 1 week of differentiation (n=14)) was “no cells” and the “cells with ATP-activated current” value ([7]; after 3 weeks of differentiation) was ~30%.

With `CC1=C(/C=C/C(C)=C/C=C/C(C)=C/C(=O)O)C(C)(C)CCC1` [retinoic acid] the “cells with NF160 staining” value (HDRGVIII-C10 cells) was 8.1%.

In the case of `NC1=N[C@H](O)[C@H]2[C@H]3O[C@]4(O)O[C@@H]([C@@H](O)[C@@]2(N1)[C@@H]4O)[C@]3(O)CO` [TTX, tetrodotoxin], the “sensitivity of voltage-gated sodium currents” value (HDRGVIII-C10.6 cells [6]) is reported as “TTX-sensitive”.

With `C=C[C@@]1(C)CC(=O)[C@]2(O)[C@@]3(C)[C@@H](O)CCC(C)(C)[C@@H]3[C@H](O)[C@H](OC(C)=O)[C@@]2(C)O1` [forskolin] the “cells with NF160 staining” value (HDRGVIII-C10 cells) was 15±2.2%.

`Oc1cc2c(cc1O)CN(C(=S)NCCc1ccc(Cl)cc1)CCC2` [capsazepine] was tested, and the “effect on response to 1 μM capsaicin” value (capsaicin receptors [2]; 20 μM capsazepine) was “blocked; also recorded: inhibited” and the “effect on capsaicin (10 μM)-induced cobalt labeling” value (capsaicin receptors [5]; 100 μM capsazepine) was “reduced substantially”.

With `Nc1ncnc2c1ncn2[C@@H]1O[C@H](COP(=O)(O)CP(=O)(O)OP(=O)(O)O)[C@@H](O)[C@H]1O` [αβ-meATP, αβ-methylene-ATP] the currents elicited [8] was “Rapidly activating and strongly desensitizing currents”, the “desensitization of elicited currents” value [7] was ~15% and the “cells with αβ-meATP responses” value ([7]; differentiated rat DRG cells) was 1 of 20. For the same molecule, the “I Purinergic (αβmeATP)” value (HDRGVIII-C10.6 cells [6]; Proliferative, held at -80 mV) was 29 ± 15 pA, the “I Purinergic (αβmeATP)” value (HDRGVIII-C10.6 cells [6]; THSFskGCN, 8 days) was 3 ± 3 pA and the “I Purinergic (αβmeATP)” value (HDRGVIII-C10.6 cells [6]; THSFskGCN, 11 days) was 226 ± 80 pA.

In the case of LIF: leukemia inhibitory factor, the “βIII tubulin positive cells” value [9] is reported as 28.4%.

With IL-1β: interleukin-1β the βIII-tubulin positive cells [1] was 33%.

B1: IL-11: interleukin IL-11, differentiating factor (protein, UniProt P20809 22-199, looked up)
Interleukin-11: PGPPPGPPRVSPDPRAELDSTVLLTRSLLADTRQLAAQLRDKFPADGDHNLDSLPTLAMSAGALGALQLPGVLTRLRADLLSYLRHVQWLRRAGGSSLKTLEPELGTLQARLDRLLRRLQLLMSRLALPQPPPDPPAPPLAPPSSAWGGIRAAHAILGGLHLTLDWAVRGLLLLKTRL
In the case of B1, the βIII-tubulin positive cells [1] is reported as 34% and the βIII-tubulin-positive neurons (HDRGVIII-C11 cells; differentiated with T, HS, Fsk, NGF plus IL-11) is reported as 1.5±0.9%.

B2: NT-3: neurotrophin-3 (protein, UniProt P20783 139-257, looked up)
Neurotrophin-3: YAEHKSHRGEYSVCDSESLWVTDKSSAIDIRGHQVTVLGEIKTGNSPVKQYFYETRCKEARPVKNGCRGIDDKHWNSQCKTSQTYVRALTSENNKLVGWRWIRIDTSCVCALSRKIGRT
In the case of B2, the “βIII tubulin positive cells expressing NF160” value ([1]; NT-3 added to medium containing NGF plus LIF or CNTF (less than 25% in absence of NT-3)) is reported as ≥ 65%, the “cells differentiated into βIII-tubulin-positive neurons” value (HDRGVIII-C11 cells; NT-3 added to standard differentiating medium (1.4±0.6% without NT-3)) is reported as 4.0±2.2% and the cells expressing peripherin (HDRGVIII-C10.6 cells [10]) is reported as 43±8%.
